Laboratory results taken from ChEMBL document CHEMBL1201862, “PubChem BioAssay data set” (2004).
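1) Cells in 96-well plates. 2) Compound, 48 h, 5 concentrations. 3) Linear interpolation between surrounding doses. 4) Unreached endpoint = highest concentration. The concentration for 50% growth inhibition is given as GI50.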 Activity calls are given as the source filed them. No stated cut-off is given here; in the data, active = GI50 up to about 1.1 µM and inactive = higher.

Experiments:
Experiment in all cases: NCI anticancer screen, dose series, 48 h
HCC 2998 = test system: HCC 2998
IGROV-1 = test system: IGROV-1
Malme-3M = test system: Malme-3M
SK-MEL-2 = test system: SK-MEL-2
SN12C = test system: SN12C
OVCAR-8 = test system: OVCAR-8
CAKI-1 = test system: CAKI-1
UO-31 = test system: UO-31
ACHN = test system: ACHN
SK-MEL-28 = test system: SK-MEL-28
OVCAR-5 = test system: OVCAR-5
SNB-75 = test system: SNB-75
LOX IMVI = test system: LOX IMVI
NCI-H23 = test system: NCI-H23
CCRF-CEM = test system: CCRF-CEM
HCT-116 = test system: HCT-116
RXF 393 = test system: RXF 393

Measured: GI50

O=C1Nc2ccc(Cl)c(I)c2C1=O
inactive: HCC 2998 14.6 µM | IGROV-1 17.1 µM | Malme-3M 20.2 µM | SK-MEL-2 18.7 µM | SN12C 17.2 µM | OVCAR-8 18.7 µM | CAKI-1 21.6 µM | UO-31 17.7 µM | ACHN 16.7 µM | SK-MEL-28 17.8 µM | OVCAR-5 19.7 µM | SNB-75 22.8 µM | LOX IMVI 18.5 µM | NCI-H23 18.9 µM | CCRF-CEM 15.4 µM | HCT-116 15.2 µM | RXF 393 16.3 µM

CC1=CCCC(OC(N)=O)C1 (centres undefined)
inactive: HCC 2998 > 100 µM | IGROV-1 > 100 µM | Malme-3M > 100 µM | SK-MEL-2 > 100 µM | SN12C > 100 µM | OVCAR-8 > 100 µM | CAKI-1 > 100 µM | UO-31 > 100 µM | ACHN > 100 µM | OVCAR-5 > 100 µM | SNB-75 97.7 µM | LOX IMVI > 100 µM | NCI-H23 > 100 µM | CCRF-CEM > 100 µM | HCT-116 > 100 µM | RXF 393 > 100 µM

Oc1ccc(O)c(-n2cccn2)c1-n1cccn1
inactive: HCC 2998 > 100 µM | IGROV-1 > 100 µM | Malme-3M > 100 µM | SK-MEL-2 > 100 µM | SN12C > 100 µM | OVCAR-8 > 100 µM | CAKI-1 > 100 µM | UO-31 > 100 µM | ACHN > 100 µM | SK-MEL-28 > 100 µM | OVCAR-5 > 100 µM | SNB-75 > 100 µM | LOX IMVI > 100 µM | NCI-H23 > 100 µM | CCRF-CEM > 10 µM | RXF 393 > 100 µM

NC(=S)N/N=C1/CN(c2ccc(Cl)c(Cl)c2)CC(=O)C1c1nc2ccccc2s1 (centres undefined)
inactive: HCC 2998 > 100 µM | IGROV-1 > 100 µM | Malme-3M > 100 µM | SK-MEL-2 > 100 µM | SN12C 95.7 µM | OVCAR-8 76.7 µM | CAKI-1 > 100 µM | UO-31 38.7 µM | ACHN 93.3 µM | SK-MEL-28 92.3 µM | OVCAR-5 > 100 µM | SNB-75 28.5 µM | LOX IMVI 59.6 µM | NCI-H23 45.1 µM | CCRF-CEM 66.2 µM | HCT-116 35.6 µM | RXF 393 > 100 µM

CCc1ccccc1NC(=O)CCc1nnc(S)[nH]1
inactive: HCC 2998 > 100 µM | IGROV-1 > 100 µM | Malme-3M > 100 µM | SK-MEL-2 > 100 µM | SN12C > 100 µM | OVCAR-8 > 100 µM | CAKI-1 > 100 µM | UO-31 > 100 µM | ACHN > 100 µM | SK-MEL-28 > 100 µM | OVCAR-5 > 100 µM | SNB-75 > 100 µM | LOX IMVI > 100 µM | NCI-H23 > 100 µM | CCRF-CEM > 100 µM | HCT-116 > 100 µM | RXF 393 > 100 µM

CS(=O)(=O)c1ccc(-c2cc(-c3ccc(S(C)(=O)=O)cc3)[n+](-c3cc(-c4ccc(S(C)(=O)=O)cc4)c([O-])c(-c4ccc(S(C)(=O)=O)cc4)c3)c(-c3ccc(S(C)(=O)=O)cc3)c2)cc1
inactive: HCC 2998 > 100 µM | IGROV-1 > 100 µM | Malme-3M > 100 µM | SK-MEL-2 > 100 µM | SN12C > 100 µM | OVCAR-8 > 100 µM | CAKI-1 > 100 µM | UO-31 > 100 µM | ACHN > 100 µM | SK-MEL-28 > 100 µM | OVCAR-5 > 100 µM | SNB-75 > 100 µM | LOX IMVI > 100 µM | NCI-H23 > 100 µM | CCRF-CEM > 100 µM | HCT-116 > 100 µM | RXF 393 > 100 µM

O=C(O)CCC(NC(=O)c1ccc(Nc2nc3ccccc3nc2-c2cccs2)cc1)C(=O)O (centres undefined)
inactive: HCC 2998 > 100 µM | IGROV-1 > 100 µM | Malme-3M > 100 µM | SK-MEL-2 > 100 µM | SN12C > 100 µM | OVCAR-8 > 100 µM | CAKI-1 > 100 µM | UO-31 > 100 µM | ACHN > 100 µM | SK-MEL-28 > 100 µM | OVCAR-5 > 100 µM | SNB-75 > 100 µM | LOX IMVI > 100 µM | NCI-H23 > 100 µM | CCRF-CEM > 100 µM | HCT-116 > 100 µM | RXF 393 > 100 µM

O=S(=O)(c1ccccc1)N1N=C2c3ccccc3CCC[C@H]2C1c1ccccc1 (some centres undefined)
inactive: HCC 2998 > 100 µM | IGROV-1 > 100 µM | Malme-3M > 100 µM | SK-MEL-2 > 100 µM | SN12C > 100 µM | OVCAR-8 > 100 µM | CAKI-1 > 100 µM | UO-31 > 60.8 µM | ACHN > 100 µM | SK-MEL-28 > 100 µM | OVCAR-5 > 100 µM | SNB-75 > 74.6 µM | LOX IMVI > 87.9 µM | NCI-H23 > 100 µM | CCRF-CEM > 100 µM | HCT-116 > 100 µM | RXF 393 > 100 µM
